Reference: ChEMBL document CHEMBL1153665, “Development of L-689,065 - the prototype of a new class of potent 5-lipoxygenase inhibitors” (Bioorg Med Chem Lett, 1992)

What was measured:
[1] = biological target: T1, Arachidonate 5-lipoxygenase-activating protein (Homo sapiens, UniProt P20292); experiment: Compound was tested for its binding activity towards 5-lipoxygenase activating protein (FLAP)
T1 sequence (P20292 whole entry): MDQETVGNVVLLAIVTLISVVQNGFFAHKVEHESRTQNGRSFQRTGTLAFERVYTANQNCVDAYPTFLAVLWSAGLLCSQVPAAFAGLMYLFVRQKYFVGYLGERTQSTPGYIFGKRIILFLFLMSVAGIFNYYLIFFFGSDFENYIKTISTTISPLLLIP

[2] = biological target: T2, Polyunsaturated fatty acid 5-lipoxygenase (Rattus norvegicus, UniProt P12527); experiment: Compound was tested for its inhibitory activity against 5-lipoxygenase in rat.
T2 sequence (P12527 whole entry): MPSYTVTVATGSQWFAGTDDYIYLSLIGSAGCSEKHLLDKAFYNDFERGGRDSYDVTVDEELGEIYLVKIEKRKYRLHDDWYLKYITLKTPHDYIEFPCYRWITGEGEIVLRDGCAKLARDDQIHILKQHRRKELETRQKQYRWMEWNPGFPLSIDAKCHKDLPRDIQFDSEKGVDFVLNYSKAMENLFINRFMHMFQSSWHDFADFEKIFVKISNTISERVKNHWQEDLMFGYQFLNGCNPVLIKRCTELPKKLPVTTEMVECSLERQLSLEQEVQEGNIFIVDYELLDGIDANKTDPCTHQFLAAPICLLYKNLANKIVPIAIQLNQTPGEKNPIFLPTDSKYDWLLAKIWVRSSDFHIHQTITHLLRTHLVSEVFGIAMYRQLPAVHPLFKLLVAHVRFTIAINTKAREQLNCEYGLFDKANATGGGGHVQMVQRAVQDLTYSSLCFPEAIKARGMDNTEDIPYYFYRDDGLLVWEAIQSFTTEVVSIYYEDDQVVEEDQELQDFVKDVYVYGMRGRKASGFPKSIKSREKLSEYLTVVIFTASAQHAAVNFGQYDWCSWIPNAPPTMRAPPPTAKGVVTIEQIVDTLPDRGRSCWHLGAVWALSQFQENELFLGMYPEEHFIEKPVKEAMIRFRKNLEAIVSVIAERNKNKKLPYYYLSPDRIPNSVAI

[3] = Maximum plasma concentration in rats when a oral dose of 200 mg/kg was given; type: ADME, organism-based; parameters: dose 200 mg/kg, route oral; conditions: rat
Rattus norvegicus [4] = experiment: Time to reach maximum concentration following oral administration of 200 mg/kg in rat; value ranges from 2-4; type: ADME, organism-based; parameters: dose 200 mg/kg, route oral; conditions: in vivo
Rattus norvegicus [5] = experiment: Compound was tested for inhibition of dyspnea at 0.5 mg/kg when administered perorally in rats; type: functional; conditions: route oral

SMILES | IC50 [1] [µM] | IC50 [2] [µM] | Cmax [3] [µM] | T max (Rattus norvegicus [4]) [h] | inhibition in vivo at 0.5 mg/kg (Rattus norvegicus [5]) [%]
CC(C)(C)Sc1c(CC(C)(C)C(=O)O)n(Cc2ccc(Cl)cc2)c2ccc(OCc3ccc4ccccc4n3)cc12 [QUIFLAPON] | 0.0023 | > 2 |  |  | 
CC1Cc2c(OCc3ccc(-c4ccccc4)cn3)ccc3c2c(c(CC(C)(C)C(=O)O)n3Cc2ccc(Cl)cc2)S1 (single isomer, unassigned; (-)) | > 10 | 0.04 |  |  | 
Cc1c(CC(C)(C)C(=O)O)n(Cc2ccc(Cl)cc2)c2ccc(OCc3ccc4ccccc4n3)cc12 | 0.0028 | > 5 |  |  | 
CC1Cc2c(OCc3ccc(-c4ccccc4)cn3)ccc3c2c(c(CC(C)(C)C(=O)O)n3Cc2ccc(Cl)cc2)S1 (racemic) | 22 | 0.06 | 5 | 2 | 55
CC1Cc2c(OCc3ccc(-c4ccccc4)cn3)ccc3c2c(c(CC(C)(C)C(=O)O)n3Cc2ccc(Cl)cc2)S1 (single isomer, unassigned; (+)) | > 10 | 0.15 |  |  | 
Cc1c(CC(C)(C)C(=O)O)n(Cc2ccc(Cl)cc2)c2ccc(OCc3ccc(-c4ccccc4)cn3)cc12 | 0.0093 | 0.7 |  |  | 
CC1Cc2c(OCc3ccc4ccccc4n3)ccc3c2c(c(CC(C)(C)C(=O)O)n3Cc2ccc(Cl)cc2)S1 (centres undefined) | 0.019 | 0.3 |  |  | 
C=CCc1c(OCc2ccc3ccccc3n2)ccc2c1c(SC(C)(C)C)c(CC(C)(C)C(=O)O)n2Cc1ccc(Cl)cc1 | 0.027 | > 8 |  |  | 
